Holding throughout (test): cAMP functional assay (HTRF) in HEK293 cells in presence of 0.1% casein
What all share (assay type): cell-based
(In general: Time-resolved FRET reads energy transfer from a long-lived donor to a nearby acceptor.)

The target of experiment [1] is T1, human glucose-dependent insulinotropic peptide receptor (GIPR) (Homo sapiens, UniProt P48546).
T1 construct: expressed in transfected cells; host or cells: HEK293
T1 sequence (P48546 22-466): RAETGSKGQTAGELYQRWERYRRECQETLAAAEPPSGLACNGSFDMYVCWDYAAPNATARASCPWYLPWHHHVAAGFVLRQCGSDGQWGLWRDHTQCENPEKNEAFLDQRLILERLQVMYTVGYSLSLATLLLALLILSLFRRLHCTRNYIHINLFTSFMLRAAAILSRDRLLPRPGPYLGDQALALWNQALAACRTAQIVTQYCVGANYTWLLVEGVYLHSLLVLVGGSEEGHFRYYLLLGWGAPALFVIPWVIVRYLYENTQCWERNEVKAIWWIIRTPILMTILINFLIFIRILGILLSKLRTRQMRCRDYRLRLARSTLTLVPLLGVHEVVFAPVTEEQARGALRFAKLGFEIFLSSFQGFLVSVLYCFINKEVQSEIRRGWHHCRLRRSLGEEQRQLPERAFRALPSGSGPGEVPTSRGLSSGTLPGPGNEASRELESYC
As to conditions: HEK293 cells expressing human GIPR, geometric mean, read-out: hGIPR cAMP Rel EC50 nM (SEM, n).

The target in experiment [2] is T2, human GLP-1 receptor (GLP-1R) (Homo sapiens, UniProt P43220).
T2 construct: expressed in transfected cells; host or cells: HEK293
T2 sequence (P43220 24-463): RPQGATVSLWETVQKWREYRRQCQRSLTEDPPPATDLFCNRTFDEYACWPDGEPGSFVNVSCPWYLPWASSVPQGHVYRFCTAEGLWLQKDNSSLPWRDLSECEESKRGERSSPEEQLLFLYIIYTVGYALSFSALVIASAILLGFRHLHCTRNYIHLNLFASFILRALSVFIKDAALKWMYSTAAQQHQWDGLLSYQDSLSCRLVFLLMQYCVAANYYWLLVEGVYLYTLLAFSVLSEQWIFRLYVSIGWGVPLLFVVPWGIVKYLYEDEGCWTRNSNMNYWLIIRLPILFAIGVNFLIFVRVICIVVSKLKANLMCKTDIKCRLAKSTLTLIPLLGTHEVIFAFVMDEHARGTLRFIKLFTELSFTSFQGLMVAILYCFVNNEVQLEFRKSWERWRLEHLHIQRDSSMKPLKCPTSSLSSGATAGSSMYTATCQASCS
As to conditions: HEK293 cells expressing human GLP-1R, geometric mean, read-out: hGLP1R cAMP Rel EC50 nM (SEM, n).

Experiment [3] addresses T3, human glucagon receptor (GcgR) (Homo sapiens, UniProt P47871).
T3 construct: expressed in transfected cells; host or cells: HEK293
As to conditions: HEK293 cells expressing human GcgR, geometric mean, read-out: hGcgR cAMP Rel EC50 nM (SEM, n).

*1 amine or outer side, *2 acyl side, *3 side chain or, on linkers, in order; H or OH if unused. Where a SMILES comes first, the peptide text is derived from it. Side-chain parts run from the residue outwards. [ ]: non-standard residue; d: D form. The star is where a group is joined. C20 diacid = O=C(O)CCCCCCCCCCCCCCCCCCC(=O)*; αMePhe(2-F) = C[C@](N)(Cc1ccccc1F)C(=O)O; γGlu = O=C(O)[C@H](CCC(=O)[*:2])N[*:1]; αMeY = C[C@](N)(Cc1ccc(O)cc1)C(=O)O; 4Pal = N[C@@H](Cc1ccncc1)C(=O)O; αMeL = CC(C)C[C@](C)(N)C(=O)O; AEEA = NCCOCCOCC(=O)O; Aib = CC(C)(N)C(=O)O

T3 sequence (P47871 26-477): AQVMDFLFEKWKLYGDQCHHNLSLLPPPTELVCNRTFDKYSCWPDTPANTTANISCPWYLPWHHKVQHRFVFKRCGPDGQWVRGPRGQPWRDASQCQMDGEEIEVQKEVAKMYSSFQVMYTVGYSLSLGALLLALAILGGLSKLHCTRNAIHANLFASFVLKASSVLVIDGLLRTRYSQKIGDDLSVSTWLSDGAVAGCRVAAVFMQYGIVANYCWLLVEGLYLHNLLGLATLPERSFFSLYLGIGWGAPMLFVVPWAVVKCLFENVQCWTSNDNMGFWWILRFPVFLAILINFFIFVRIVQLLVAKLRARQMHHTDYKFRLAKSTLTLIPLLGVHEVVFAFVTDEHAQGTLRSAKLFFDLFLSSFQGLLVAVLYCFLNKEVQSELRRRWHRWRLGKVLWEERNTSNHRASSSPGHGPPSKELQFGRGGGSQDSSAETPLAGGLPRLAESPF

For the compound `CC[C@H](C)[C@H](NC(=O)[C@H](Cc1ccccc1)NC(=O)[C@@H](NC(=O)CNC(=O)[C@H](CCC(=O)O)NC(=O)C(C)(C)NC(=O)[C@@H](N)Cc1ccc(O)cc1)[C@@H](C)O)C(=O)N[C@@H](CO)C(=O)N[C@@H](CC(=O)O)C(=O)N[C@@H](Cc1ccc(O)cc1)C(=O)N[C@@H](CO)C(=O)N[C@H](C(=O)N[C@@](C)(CC(C)C)C(=O)N[C@@H](CC(C)C)C(=O)N[C@@H](CC(=O)O)C(=O)N[C@@H](CCCCN)C(=O)N[C@@H](CCCCNC(=O)COCCOCCNC(=O)COCCOCCNC(=O)CC[C@H](NC(=O)CCCCCCCCCCCCCCCCCCC(=O)O)C(=O)O)C(=O)N[C@@H](Cc1c[nH]cn1)C(=O)N[C@@H](CCC(N)=O)C(=O)NC(C)(C)C(=O)N[C@@H](CC(=O)O)C(=O)N[C@@H](Cc1ccccc1)C(=O)N[C@H](C(=O)N[C@@H](CCC(=O)O)C(=O)N[C@@](C)(Cc1ccc(O)cc1)C(=O)N[C@@H](CC(C)C)C(=O)N[C@@H](CC(C)C)C(=O)N[C@@H](CCC(=O)O)C(=O)NCC(=O)NCC(=O)N1CCC[C@H]1C(=O)N[C@@H](CO)C(=O)N[C@@H](CO)C(=O)NCC(=O)N[C@@H](C)C(=O)N1CCC[C@H]1C(=O)N1CCC[C@H]1C(=O)N1CCC[C@H]1C(=O)N[C@@H](CO)C(N)=O)C(C)C)[C@@H](C)CC` [Example 91] (H-Y[Aib]EGTFISDYSI[αMeL]LDKK([AEEA-AEEA-γGlu-C20 diacid])HQ[Aib]DFVE[αMeY]LLEGGPSSGAPPPS-NH2), the EC50 was found to be 0.0321 nM in experiment [1], 530 nM in experiment [2] and 289 nM in experiment [3].

Consider `CC[C@H](C)[C@H](NC(=O)[C@H](CCCCN)NC(=O)[C@H](CC(=O)O)NC(=O)[C@H](CC(C)C)NC(=O)[C@](C)(CC(C)C)NC(=O)[C@@H](NC(=O)[C@H](CO)NC(=O)[C@H](Cc1ccc(O)cc1)NC(=O)[C@H](CC(=O)O)NC(=O)[C@H](CO)NC(=O)[C@@H](NC(=O)[C@H](Cc1ccccc1)NC(=O)[C@@H](NC(=O)CNC(=O)[C@H](CCC(=O)O)NC(=O)C(C)(C)NC(=O)[C@@H](N)Cc1ccc(O)cc1)[C@@H](C)O)[C@@H](C)CC)[C@@H](C)CC)C(=O)N[C@@H](Cc1c[nH]cn1)C(=O)N[C@@H](CCC(N)=O)C(=O)NC(C)(C)C(=O)N[C@@H](CCC(=O)O)C(=O)N[C@@H](Cc1ccccc1)C(=O)N[C@H](C(=O)N[C@@H](CCC(=O)O)C(=O)N[C@@H](Cc1ccncc1)C(=O)N[C@@H](CCCCNC(=O)COCCOCCNC(=O)COCCOCCNC(=O)CC[C@H](NC(=O)CCCCCCCCCCCCCCCCCCC(=O)O)C(=O)O)C(=O)N[C@@H](CC(C)C)C(=O)N[C@@H](CCC(=O)O)C(=O)NCC(=O)NCC(=O)N1CCC[C@H]1C(=O)N[C@@H](CO)C(=O)N[C@@H](CO)C(=O)NCC(=O)N[C@@H](C)C(=O)N1CCC[C@H]1C(=O)N1CCC[C@H]1C(=O)N1CCC[C@H]1C(=O)N[C@@H](CO)C(N)=O)C(C)C` [Example 100] (H-Y[Aib]EGTFISDYSI[αMeL]LDKIHQ[Aib]EFVE[4Pal]K([AEEA-AEEA-γGlu-C20 diacid])LEGGPSSGAPPPS-NH2), for which the figures for the EC50 in experiment [1], in experiment [2] and in experiment [3] were 0.0224 nM, more than 5000 nM and more than 5000 nM, respectively.

For the compound `CC[C@H](C)[C@H](NC(=O)[C@H](CCCN)NC(=O)[C@H](CC(=O)O)NC(=O)[C@H](CC(C)C)NC(=O)[C@](C)(CC(C)C)NC(=O)[C@@H](NC(=O)[C@H](CO)NC(=O)[C@H](Cc1ccc(O)cc1)NC(=O)[C@H](CC(=O)O)NC(=O)[C@H](CO)NC(=O)[C@@H](NC(=O)[C@H](Cc1ccccc1)NC(=O)[C@@H](NC(=O)CNC(=O)[C@H](CCC(=O)O)NC(=O)C(C)(C)NC(=O)[C@@H](N)Cc1ccc(O)cc1)[C@@H](C)O)[C@@H](C)CC)[C@@H](C)CC)C(=O)N[C@@H](Cc1c[nH]cn1)C(=O)N[C@@H](CCC(N)=O)C(=O)NC(C)(C)C(=O)N[C@@H](CC(=O)O)C(=O)N[C@@H](Cc1ccccc1)C(=O)N[C@H](C(=O)N[C@H](CCC(=O)O)C(=O)N[C@@H](Cc1ccc(O)cc1)C(=O)N[C@@H](CCCCNC(=O)COCCOCCNC(=O)COCCOCCNC(=O)CC[C@H](NC(=O)CCCCCCCCCCCCCCCCCCC(=O)O)C(=O)O)C(=O)N[C@@H](CC(C)C)C(=O)N[C@@H](CCC(=O)O)C(=O)NCC(=O)NCC(=O)N1CCC[C@H]1C(=O)N[C@@H](CO)C(=O)N[C@@H](CO)C(=O)NCC(=O)N[C@@H](C)C(=O)N1CCC[C@H]1C(=O)N1CCC[C@H]1C(=O)N1CCC[C@H]1C(=O)N[C@@H](CO)C(N)=O)C(C)C` [Example 101], the EC50 in experiment [1] is 0.0396 nM; in experiment [2], more than 5000 nM; in experiment [3], more than 5000 nM.

Consider `CC[C@H](C)[C@H](NC(=O)[C@H](CCCCN)NC(=O)[C@H](CC(=O)O)NC(=O)[C@H](CC(C)C)NC(=O)[C@](C)(CC(C)C)NC(=O)[C@@H](NC(=O)[C@H](CO)NC(=O)[C@H](Cc1ccc(O)cc1)NC(=O)[C@H](CC(=O)O)NC(=O)[C@H](CO)NC(=O)[C@@H](NC(=O)[C@H](Cc1ccccc1)NC(=O)[C@@H](NC(=O)CNC(=O)[C@H](CCC(=O)O)NC(=O)C(C)(C)NC(=O)[C@@H](N)Cc1ccc(O)cc1)[C@@H](C)O)[C@@H](C)CC)[C@@H](C)CC)C(=O)N[C@@H](Cc1c[nH]cn1)C(=O)N[C@@H](CCC(N)=O)C(=O)NC(C)(C)C(=O)N[C@@H](CC(=O)O)C(=O)N[C@@H](Cc1ccccc1)C(=O)N[C@H](C(=O)N[C@@H](CCC(=O)O)C(=O)N[C@@H](Cc1ccc(O)cc1)C(=O)N[C@@H](CCCCNC(=O)COCCOCCNC(=O)COCCOCCNC(=O)CC[C@H](NC(=O)CCCCCCCCCCCCCCCCCCC(=O)O)C(=O)O)C(=O)N[C@@H](CC(C)C)C(=O)N[C@@H](CCC(=O)O)C(=O)N[C@@H](C)C(=O)NCC(=O)N1CCC[C@H]1C(=O)N[C@@H](CO)C(=O)N[C@@H](CO)C(=O)NCC(=O)N[C@@H](C)C(=O)N1CCC[C@H]1C(=O)N1CCC[C@H]1C(=O)N1CCC[C@H]1C(=O)N[C@@H](CO)C(N)=O)C(C)C` [Example 117] (H-Y[Aib]EGTFISDYSI[αMeL]LDKIHQ[Aib]DFVEYK([AEEA-AEEA-γGlu-C20 diacid])LEAGPSSGAPPPS-NH2), for which the concentration giving a half-maximal response (EC50) in experiment [1] was 0.0617 nM; in experiment [2], more than 5000 nM; in experiment [3], more than 5000 nM.

Regarding `CC[C@H](C)[C@H](NC(=O)[C@H](CO)NC(=O)[C@H](Cc1ccc(O)cc1)NC(=O)[C@H](CC(=O)O)NC(=O)[C@H](CO)NC(=O)[C@@H](NC(=O)[C@H](Cc1ccccc1)NC(=O)[C@@H](NC(=O)CNC(=O)[C@H](CCC(=O)O)NC(=O)[C@@H](C)NC(=O)[C@@H](N)Cc1ccc(O)cc1)[C@@H](C)O)[C@@H](C)CC)C(=O)N[C@@H](CC(C)C)C(=O)N[C@@H](CC(C)C)C(=O)N[C@@H](CC(=O)O)C(=O)N[C@@H](CCCCN)C(=O)N[C@@H](CCCCNC(=O)COCCOCCNC(=O)COCCOCCNC(=O)CC[C@H](NC(=O)CCCCCCCCCCCCCCCCCCC(=O)O)C(=O)O)C(=O)N[C@@H](C)C(=O)N[C@@H](CCC(N)=O)C(=O)NC(C)(C)C(=O)N[C@@H](CC(=O)O)C(=O)N[C@@H](Cc1ccccc1)C(=O)N[C@H](C(=O)N[C@@H](CC(N)=O)C(=O)N[C@@H](Cc1c[nH]c2ccccc12)C(=O)N[C@@H](CC(C)C)C(=O)N[C@@H](CC(C)C)C(=O)N[C@@H](C)C(=O)N[C@@H](CCC(N)=O)C(=O)NCC(=O)N1CCC[C@H]1C(=O)N[C@@H](CO)C(=O)N[C@@H](CO)C(=O)NCC(=O)N[C@@H](C)C(=O)N1CCC[C@H]1C(=O)N1CCC[C@H]1C(=O)N1CCC[C@H]1C(=O)N[C@@H](CO)C(N)=O)C(C)C` [Example 1], the concentration for a half-maximal effect (EC50) was 0.0476 nM in experiment [1], more than 5000 nM in experiment [2] and 575 nM in experiment [3].

With `CC[C@H](C)[C@H](NC(=O)[C@H](CO)NC(=O)[C@H](Cc1ccc(O)cc1)NC(=O)[C@H](CC(=O)O)NC(=O)[C@H](CO)NC(=O)[C@@H](NC(=O)[C@](C)(Cc1ccccc1F)NC(=O)[C@@H](NC(=O)CNC(=O)[C@H](CCC(=O)O)NC(=O)C(C)(C)NC(=O)[C@@H](N)Cc1ccc(O)cc1)[C@@H](C)O)[C@@H](C)CC)C(=O)N[C@@H](C)C(=O)N[C@@H](CC(C)C)C(=O)N[C@@H](CC(=O)O)C(=O)N[C@@H](CCCCN)C(=O)N[C@H](C(=O)N[C@@H](Cc1c[nH]cn1)C(=O)N[C@@H](CCC(N)=O)C(=O)NC(C)(C)C(=O)N[C@@H](CC(=O)O)C(=O)N[C@@H](Cc1ccccc1)C(=O)N[C@H](C(=O)N[C@@H](CCC(=O)O)C(=O)N[C@@H](Cc1ccncc1)C(=O)N[C@@H](CCCCNC(=O)COCCOCCNC(=O)COCCOCCNC(=O)CC[C@H](NC(=O)CCCCCCCCCCCCCCCCCCC(=O)O)C(=O)O)C(=O)N[C@@H](CC(C)C)C(=O)N[C@@H](CCC(=O)O)C(=O)NCC(=O)NCC(=O)N1CCC[C@H]1C(=O)N[C@@H](CO)C(=O)N[C@@H](CO)C(=O)NCC(=O)N[C@@H](C)C(=O)N1CCC[C@H]1C(=O)N1CCC[C@H]1C(=O)N1CCC[C@H]1C(=O)N[C@@H](CO)C(N)=O)C(C)C)[C@@H](C)CC` [Example 112] (H-Y[Aib]EGT[αMePhe(2-F)]ISDYSIALDKIHQ[Aib]DFVE[4Pal]K([AEEA-AEEA-γGlu-C20 diacid])LEGGPSSGAPPPS-NH2), the EC50 in experiment [1] was 0.0041 nM; in experiment [2], more than 5000 nM; in experiment [3], more than 5000 nM.

A word on the EC50: it is the concentration needed to bring the measured effect to its halfway point.

Source of the values: patent publication US12723063B2, “GIPR-agonist compounds” (Eli Lilly and Company, priority 2019, dated 2026).
